In patent US9474281B2, “Fungicidal composition and method for controlling plant diseases” (ISHIHARA SANGYO KAISHA, LTD., priority 2008, dated 2016):
Values joined by “and” are separate entries in the source; they are usually repeats but may differ in a detail not shown here. Equal entries are not always repeated.

Experiments:
Erysiphe graminis = experiment: Test on preventive effect against wheat powdery mildew; type: in vivo; set-up: key: lesion area as % of non-treated plot: (treated/non-treated)×100; conditions: applied alone
Procedure: Wheat (cultivar: Norin-61-go) was cultivated in a plastic pot having a diameter of 7.5 cm, and when it reached 1.5-leaf stage, 10 ml of a chemical solution having each test compound adjusted to a prescribed concentration, was applied by a spray gun in an amount of 1000 L/ha. After the chemical solution dried, conidia of Erysiphe graminis were dusted and inoculated and maintained in a constant temperature chamber at 20° C. From 6 to 8 days after the inoculation, the area of sporulation was investigated, and the disease rate was determined in accordance with the following formula, and the results are shown in Tables 1 to 4. The average lesion area in the non-treated plot was determined in the same manner as for the treated plot except that water was applied by a spray gun instead of the chemical solution. Disease rate=(a/b)×100
a: average lesion area in the treated plot
b: average lesion area in the non-treated plot
Theoretical values were calculated in accordance with the Colby's formula. The fungicidal composition of the present invention has a synergistic effect regarding the test on preventive effect against wheat powdery mildew, when the experimental value is lower than the theoretical value. Theoretical values by the Colby's formula in such cases are shown in brackets in Tables 1 to 4.

Sphaerotheca cucurbitae = experiment: Test on preventive effect against cucumber powdery mildew; type: in vivo; set-up: scale not given here; conditions: applied alone
Procedure: Cucumber (cultivar: Suyo) was cultivated in a plastic pot having a diameter of 7.5 cm, and when it reached 1.5-leaf stage, 10 ml of a chemical solution having the compound of the present invention adjusted to a prescribed concentration, was applied by a spray gun. After the chemical solution dried, a suspension of conidia of Sphaerotheca cucurbitae was sprayed and inoculated and maintained in a constant temperature chamber at 20° C. From 9 to 10 days after the inoculation, the area of sporulation was investigated, and the disease rate was determined in the same manner as in Test Example 1, and the results are shown in Tables 5 to 20. The average lesion area in the non-treated plot was determined in the same manner as for the treated plot except that water was applied by a spray gun instead of the chemical solution.
Further, theoretical values by the Colby's formula are shown in brackets in Tables 5 to 20.

COc1cc(C)c(C(=O)c2c(OC)ncc(Cl)c2C)c(OC)c1OC [Compound No. 35, 3-(2,3,4-trimethoxy-6-methylbenzoyl)-5-chloro-2-methoxy-4-methylpyridine] was tested, and the Disease rate (Erysiphe graminis; 0.8 ppm) was 70 and 100, the Disease rate (Erysiphe graminis; 1.6 ppm) was 70 and 100 and the Disease rate (Erysiphe graminis; 3.1 ppm) was 100. It also gave a Disease rate (Erysiphe graminis; 6.3 ppm) of 60.

With CC(C)CC(C)c1sccc1NC(=O)c1cn(C)nc1C(F)(F)F (stereo not shown) [Penthiopyrad] the Disease rate (Sphaerotheca cucurbitae; 0.4 ppm) was 77.4, the Disease rate (Sphaerotheca cucurbitae; 0.8 ppm) was 51.6 and the Disease rate (Sphaerotheca cucurbitae; 1.6 ppm) was 17.2.

In the case of COC(=O)N(OC)c1ccccc1COc1ccn(-c2ccc(Cl)cc2)n1 [Pyraclostrobin], the Disease rate (Erysiphe graminis; 100 ppm) is reported as 100, the Disease rate (Erysiphe graminis; 200 ppm) is reported as 100 and the Disease rate (Erysiphe graminis; 400 ppm) is reported as 100.

S1SSSSSSS1 [sulfur, Sulfur] showed a Disease rate (Sphaerotheca cucurbitae; 6.3 ppm) of 98.0, a Disease rate (Sphaerotheca cucurbitae; 12.5 ppm) of 88.2 and a Disease rate (Sphaerotheca cucurbitae; 25 ppm) of 68.6.

C/C=C/C(=O)Oc1c(C(C)CCCCCC)cc([N+](=O)[O-])cc1[N+](=O)[O-] (stereo not shown) [Mepthyldinocap, Meptyldinocap] showed a Disease rate (Sphaerotheca cucurbitae; 0.8 ppm) of 75, a Disease rate (Sphaerotheca cucurbitae; 1.6 ppm) of 60 and a Disease rate (Sphaerotheca cucurbitae; 3.1 ppm) of 60.

For COC(=O)NCc1cc(/C(C)=N/OCc2cccc(C)n2)ccc1Cl [Pyribencarb], the Disease rate (Sphaerotheca cucurbitae; 12.5 ppm) was 73.0, the Disease rate (Sphaerotheca cucurbitae; 25 ppm) was 63.2 and the Disease rate (Sphaerotheca cucurbitae; 50 ppm) was 63.2.

In the case of CC1COC(Cn2cncn2)(c2ccc(Oc3ccc(Cl)cc3)cc2Cl)O1 (stereo not shown) [Difenoconazole], the Disease rate (Erysiphe graminis; 12.5 ppm) is reported as 85, the Disease rate (Erysiphe graminis; 25 ppm) is reported as 70 and the Disease rate (Erysiphe graminis; 50 ppm) is reported as 40.

CC1CCN(C2C(c3c(F)cc(F)cc3F)=C(Cl)N=C3N=CNN32)CC1 (stereo not shown) [the compound of the formula (II)] showed a Disease rate (Sphaerotheca cucurbitae; 0.8 ppm) of 88.1, a Disease rate (Sphaerotheca cucurbitae; 3.1 ppm) of 17.2 and a Disease rate (Sphaerotheca cucurbitae; 6.3 ppm) of 8.6.

COc1cc(C)c(C(=O)c2c(OC)cnc(Cl)c2C(F)(F)F)c(OC)c1OC [Compound No. 40, 4-(2,3,4-trimethoxy-6-methylbenzoyl)-2-chloro-3-trifluoromethyl-5-methoxypyridine] was tested, and the Disease rate (Erysiphe graminis; 0.8 ppm) was 50 and the Disease rate (Sphaerotheca cucurbitae; 1.6 ppm) was 43.0.

Compound COc1cc(C)c(C(=O)c2c(Cl)cnc(Cl)c2C(F)(F)F)c(OC)c1OC [Compound No. 39, 4-(2,3,4-trimethoxy-6-methylbenzoyl)-2,5-dichloro-3-trifluoromethylpyridine] has a Disease rate (Erysiphe graminis; 1.6 ppm) of 85, a Disease rate (Erysiphe graminis; 3.1 ppm) of 75 and a Disease rate (Erysiphe graminis; 6.3 ppm) of 60.

COc1ccccc1N1CCS/C1=C(/C#N)Sc1cc(C(F)(F)F)ccc1F [flutianil] gave a Disease rate (Sphaerotheca cucurbitae; 0.0063 ppm) of 95, a Disease rate (Sphaerotheca cucurbitae; 0.0125 ppm) of 85 and a Disease rate (Sphaerotheca cucurbitae; 0.025 ppm) of 65.

O=C(Nc1ccccc1-c1ccc(Cl)cc1)c1cccnc1Cl [Boscalid] gave a Disease rate (Sphaerotheca cucurbitae; 6.3 ppm) of 43.0, a Disease rate (Sphaerotheca cucurbitae; 12.5 ppm) of 43.0 and a Disease rate (Sphaerotheca cucurbitae; 25 ppm) of 25.8.

CC(=O)Oc1c(C)c(C)nc2c(F)cc(C(C)(C)C)cc12 [6-t-butyl-8-fluoro-2,3-dimethylquinolin-4-yl acetate] was tested, and the Disease rate (Sphaerotheca cucurbitae; 6.3 ppm) was 83.6, the Disease rate (Sphaerotheca cucurbitae; 12.5 ppm) was 63.9 and the Disease rate (Sphaerotheca cucurbitae; 25 ppm) was 59.0. The Disease rate (Sphaerotheca cucurbitae; 50 ppm) was 34.4.
